Reference: patent publication US20230054976A1, “METHODS FOR INHIBITION OF ALPHA-SYNUCLEIN mRNA USING SMALL MOLECULES” (The Scripps Research Institute, priority 2019, published 2023)
“Also recorded” adds a separate entry of the source.

Legend:
[1] = system: SNCA mRNA; experiment: RT-qPCR of SNCA mRNA levels in SH-SY5Y cells; type: cell-based, human
[2] = system: APP 5′ UTR; experiment: Luciferase reporter assay, APP 5′ UTR, SH-SY5Y cells; type: cell-based, human
[3] = system: 5′ UTR of SNCA mRNA; experiment: In vitro translation assay (rabbit reticulocyte lysate), SNCA-5′-UTR-Luc mRNA; type: biochemical, human
Protocol: (§1) Luciferase assay. The effect of Synucleozid treatment on translation from various IRE containing transcripts was determined using luciferase reporter assay. SH-SY5Y cells stably expressing 5' UTR were treated with Synucleozid for 48 h, washed with PBS and lysed with Passive Lysis Buffer for 15 min at room temperature. Luciferase reporter activity in each lysate was monitored using the dual luciferase reporter assay system kit (Promega. Madison, Wis., USA) according to the manufacturer's instructions. Luminescence from firefly luciferase reaction was measured using a microplate luminometer (Wallac 1420, Perkin Elmer) at 485 nm excitation and 535 nm emission wavelengths. Firefly luciferase reaction was then quenched by adding Stop & Glo reagent, and the internal fluorescence from GFP measured at the same setting was used to normalize luciferase expression. Luciferase reporter activity was expressed as percent change compared to the respective vehicle-treated control cells. In vitro translation assay. The mRNA template for in vitro translational assays was transcribed from the pIRES-Luc-EGFP-puro and pCDH-α-syn-5'-UTR-Luc-EGFP-puro plasmids by using an in vitro transcription system (RiboMax, Promega) with forward primer: [NT] and reverse primer: [NT]. […] Translation proceeded at 30° C. for 90 min, and then luminescence was measured with a Biomek FLx800 plate reader (1.0 s integration time).

[4] = system: control plasmid lacking 5′ UTR; experiment: In vitro translation assay, control lacking 5′ UTR; type: biochemical
Protocol: as §1

[5] = system: 2-AP labeled SNCA IRE RNA; experiment: 2-AP emission assay; type: binding, human; conditions: decrease of 2-AP emission
Protocol: 2-AP emission assay. One μM 2-AP labeled SNCA IRE RNA was folded by heating to 65° C. for 5 min in 1× Assay Buffer and slowly cooling to room temperature. Bovine serum albumin (BSA) was then added to the RNA solution to 40 μg/mL. After adding Synucleozid to RNA solution at a final concentration […] of 100 μM, serial dilutions were prepared using 1× Assay Buffer including BSA supplemented with folded one μM 2-AP labeled SNCA IRE RNA. The solutions were incubated at room temperature for 30 min in dark and transferred into wells of black 384-well half area plates (Greiner). Fluorescence intensity was measured at room temperature with Tecan plate reader (Gain: 100, Integration time: 40 μs). Fluorescence excitation and emission wavelengths were set at 310 and 380 nm. The change of 2-AP fluorescence intensity as a function of Synucleozid concentration was fit to Eq. (1):
(§2) EC50 was calculated from Eq. (1).

[6] = target: RNA-1 (A bulge mutated to a base pair); experiment: Competitive binding assay (2-AP), RNA-1
Protocol: as §2

[7] = system: RNA-8 to 11 (mutated closing base pairs); experiment: Competitive binding assay (2-AP), RNA-8 to 11
Protocol: as §2

[8] = system: SNCA mRNA; experiment: ASO-Bind-Map in cells (gapmer ASO, RT-qPCR); type: cell-based, human; conditions: SH-SY5Y cells, gapmer 200 nM
Protocol: Mapping Synucleozid's binding site in cells with ASO-Bind-Map. SH-SY5Y cells were treated with vehicle (DMSO) or Synucleozid at 60% confluency overnight and were then transfected with a gapmer ASO (200 nM) with Lipofectamine RNAiMAX (Invitrogen) according to the manufacturer's instructions. Mock samples were generated by treating cells with transfection reagent lacking oligonucleotide. RNA extraction, cDNA synthesis and RT-qPCR were performed as described above after 48 h. Primers for SNCA mRNA in this experiment cover sequences upstream and downstream of the IRE; forward primer: [NT]; reverse primer [NT].

[9] = target: T1, IRP-1:SNCA IRE RNA complex (Homo sapiens, UniProt P21399); experiment: In vitro displacement of IRPs by gel mobility shift assay, IRP-1; type: binding; conditions: 0.2, 1, 5 μM; pre-incubation 1-60 min
T1 construct: purchased Abnova
T1 sequence (P21399 whole entry, species assumed, one chain of several): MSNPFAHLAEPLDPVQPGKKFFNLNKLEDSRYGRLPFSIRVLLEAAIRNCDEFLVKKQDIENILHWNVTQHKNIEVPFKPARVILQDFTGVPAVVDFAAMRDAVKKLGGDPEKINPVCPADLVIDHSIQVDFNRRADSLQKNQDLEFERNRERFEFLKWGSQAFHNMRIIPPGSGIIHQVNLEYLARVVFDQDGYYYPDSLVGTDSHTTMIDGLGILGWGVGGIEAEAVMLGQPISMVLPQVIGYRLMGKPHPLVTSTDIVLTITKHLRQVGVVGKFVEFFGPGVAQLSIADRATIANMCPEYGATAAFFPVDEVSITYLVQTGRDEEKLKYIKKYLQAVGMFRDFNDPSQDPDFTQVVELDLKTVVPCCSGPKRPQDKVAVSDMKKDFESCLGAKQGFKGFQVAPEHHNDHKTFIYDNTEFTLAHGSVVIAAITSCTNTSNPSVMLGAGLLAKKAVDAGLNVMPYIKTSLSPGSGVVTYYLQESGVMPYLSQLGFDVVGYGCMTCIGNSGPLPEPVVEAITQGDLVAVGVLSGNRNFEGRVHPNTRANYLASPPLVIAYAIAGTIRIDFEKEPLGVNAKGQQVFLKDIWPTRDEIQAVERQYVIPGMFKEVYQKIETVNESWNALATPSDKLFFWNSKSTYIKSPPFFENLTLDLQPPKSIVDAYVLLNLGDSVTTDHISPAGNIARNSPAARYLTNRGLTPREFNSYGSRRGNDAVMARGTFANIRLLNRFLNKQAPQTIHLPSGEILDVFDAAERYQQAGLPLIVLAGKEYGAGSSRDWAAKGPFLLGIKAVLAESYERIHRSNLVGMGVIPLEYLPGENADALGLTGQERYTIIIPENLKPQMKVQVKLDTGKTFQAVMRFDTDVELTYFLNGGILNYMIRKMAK
Protocol: (§3) In vitro displacement of IRPs by gel mobility shift assays. SNCA IRE hairpin RNA was 5′-end labeled with [γ-^32P]ATP as previously described^5. Approximately, 2 pmoles of ^32P labeled RNA per 20 μL reaction was folded in 1× Assay Buffer by heating at 65° C. for 5 min and slowly cooling to room temperature. As indicated, vehicle, Synucleozid (0.2, 1, 5 μM) or unlabeled IRE RNA (1 μM, folded as described above and used as a positive control) was added to the samples, and the samples were incubated at room temperature for varying amounts of time (1-60 min as indicated). Then, 0.5 μg IRP-1 or IRP-2 (Abnova) was added, and the samples were incubated at room temperature for an additional 30 min. An equal volume of 2× Native Gel Loading Buffer (2×TBE, 50% Glycerol, 0.025% (w/v) Bromophenol blue and Xylene cyanol FF) was added to each sample. Note, Native Gel Loading Buffer added to Synucleozid-treated samples was supplemented with the same concentration of Synucleozid as in the sample to maintain a constant concentration. IRP:IRE complexes and free IRE were separated on a native 15% polyacrylamide prepared 1×TBE supplemented with the same concentration of Synucleozid as in compound-treated samples, and imaged using a Bio-Rad PMI phosphorimager. Images were quantified with BioRad's Quantity One software.

[10] = target: T2, IRP-2:SNCA IRE RNA complex (Homo sapiens, UniProt P48200); experiment: In vitro displacement of IRPs by gel mobility shift assay, IRP-2; type: binding; conditions: 0.2, 1, 5 μM; pre-incubation 1-60 min
T2 construct: purchased Abnova
T2 sequence (P48200 whole entry, species assumed, one chain of several): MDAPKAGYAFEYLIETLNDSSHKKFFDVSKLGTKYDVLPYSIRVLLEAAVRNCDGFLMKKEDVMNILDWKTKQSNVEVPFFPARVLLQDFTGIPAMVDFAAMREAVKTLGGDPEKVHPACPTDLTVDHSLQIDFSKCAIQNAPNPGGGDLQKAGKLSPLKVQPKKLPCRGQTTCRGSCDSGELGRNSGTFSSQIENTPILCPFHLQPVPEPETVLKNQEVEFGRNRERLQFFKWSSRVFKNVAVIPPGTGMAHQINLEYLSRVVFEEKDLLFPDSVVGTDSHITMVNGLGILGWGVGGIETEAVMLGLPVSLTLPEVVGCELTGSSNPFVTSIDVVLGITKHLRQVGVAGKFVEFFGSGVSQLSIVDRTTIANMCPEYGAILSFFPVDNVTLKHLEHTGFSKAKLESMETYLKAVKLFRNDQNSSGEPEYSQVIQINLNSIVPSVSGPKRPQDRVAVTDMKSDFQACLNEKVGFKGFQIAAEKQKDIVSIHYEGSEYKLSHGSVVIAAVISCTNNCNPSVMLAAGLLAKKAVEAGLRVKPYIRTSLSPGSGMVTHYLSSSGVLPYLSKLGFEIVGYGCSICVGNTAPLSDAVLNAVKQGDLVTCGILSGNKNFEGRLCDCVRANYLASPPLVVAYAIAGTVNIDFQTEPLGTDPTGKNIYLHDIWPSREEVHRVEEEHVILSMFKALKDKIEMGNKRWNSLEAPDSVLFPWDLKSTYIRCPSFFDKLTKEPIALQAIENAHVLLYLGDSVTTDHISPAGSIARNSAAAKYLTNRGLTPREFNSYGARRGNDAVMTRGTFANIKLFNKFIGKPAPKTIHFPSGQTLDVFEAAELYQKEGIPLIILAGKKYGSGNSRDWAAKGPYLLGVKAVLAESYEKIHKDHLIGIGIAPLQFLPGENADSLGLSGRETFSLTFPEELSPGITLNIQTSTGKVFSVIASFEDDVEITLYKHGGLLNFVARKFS
Protocol: as §3

[11] = target: unlabeled SNCA IRE RNA (RNA-0); experiment: Competitive binding assay (2-AP), RNA-0; conditions: read-out: competitive Kd; RNA-0, native SNCA IRE
Protocol: (§4) I and I0 are the observed fluorescence intensity in the presence and absence of 2-AP RNA. Δε is the difference between the fluorescence intensity in the absence and presence of infinite 2-AP RNA. […] EC50 was calculated from Eq. (1). […] The change of fluorescence intensity was fit to Eq. (2):
(§5) θ is the percentage of 2-AP RNA bound. [RNA] is the concentration of 2-AP RNA. EC50 is the EC50 of Synucleozid determined in the assay above. [Synucleozid] is the concentration of Synucleozid. Cc is the concentration of competitive RNA. Kd is competitive dissociation constant and A is a constant.

[12] = system: RNA-12 (fully base paired RNA); experiment: Competitive binding assay (2-AP), RNA-12
Protocol: as §4, §5

[13] = system: wild type A bulge IRE RNA; experiment: Thermal melting experiment, wild type IRE
Protocol: Thermal melting experiment. […] The RNA was heated to 65° C. and slowly cooled to room temperature. […] The absorbance of solution was monitored at 260 nm by a Beckman Coulter DU 800 Spectrophotometer. Background of buffer or buffer plus compound was subtracted from the signal. Resulted melting curves were fitted with MeltWin v3.5 to determine ΔG°, ΔH°, ΔS°, and Tm. The melting temperature was compared to the first derivative value from the raw data for similarity.

## N=C(N)c1ccc(Nc2ccc(-c3cc4ccc(C(=N)N)cc4[nH]3)cc2)cc1 [Synucleozid A]
[1]
  effect on steady-state levels of SNCA mRNA: no effect
[2]
  effect on translation of luciferase fused to APP 5′ UTR: no effect
[3]
  inhibition of luciferase expression in vitro, SNCA-5′-UTR-Luc: inhibited luciferase expression in a concentration-dependent manner
[4]
  inhibitory effect on construct lacking SNCA 5′ UTR: No inhibitory effect
[5]
  EC50: 2.72 ± 0.37 µM
[5]; listed as Synucleozid
  EC50: 2.7 ± 0.4 µM
[6]
  Kd: ~20 µM
  reduction of avidity compared to the native IRE: 10 fold
[7]
  effect of closing base pair mutation on binding affinity: reduced binding affinity
[8]
  effect on SNCA mRNA cleavage by ASO(29-39): no effect; also recorded: Protection is not observed
  effect with the control ASO: no effect
[8]; read-out: EC50 for inhibition of SNCA mRNA cleavage by ASO(1-10)
  EC50: 1 µM
[9]
  effect on binding of IRP-1 to SNCA IRE RNA: Neither Synucleozid concentration (0.2, 1, 5 μM) nor pre-incubation time (1, 5, 15, 60 min) has any significant effect
[10]
  effect on binding of IRP-2 to SNCA IRE RNA: Neither Synucleozid concentration (0.2, 1, 5 μM) nor pre-incubation time (1, 5, 15, 60 min) has any significant effect
[11]
  Kd: 1.5 ± 0.3 µM
[12]
  competitor RNA concentration needed for recovery of 2-AP emission: > 100 µM
[13]
  increase of Tm of wild type IRE: 3 °C
[13]; from 51.4 without compound
  Tm of wild type IRE in presence of Synucleozid: 54.8 °C
[13]; from −2.91 without compound
  ΔG37° of wild type IRE in presence of Synucleozid: -13.5 kJ/mol
